In publication PMC11134331, “Cell-active small molecule inhibitors validate the SNM1A DNA repair nuclease as a cancer target” (Chemical Science, 2024):
Read-outs that look alike come from different tables or passages of the source.

Tests used:
[1] = test system: SNM1A- cells generated in U2OS background; test: clonogenic survival assay, SNM1A- U2OS cells; format: cell-based, human; conditions: 50 μM compound
Method: (§1) Clonogenic assays were performed in 10 cm tissue culture dishes (for RPE-1 cells, U2OS cells and derived clones). Cells (1000 per dish) were seeded in complete media (10 mL) and allowed to attach overnight, then treated with cisplatin or cisplatin plus inhibitor for the times stated. Following treatments, cells were allowed to grow and form colonies for 10 days. Colonies formed were stained with Coomassie R250 (Sigma) and counted on a COLCount Colony Counter (Oxford Optronix). All experiments represent the mean (±SEM) of at least three biological repeats of duplicate dishes/flasks for each treatment.

RPE-1 cells = test: clonogenic survival assay, RPE-1 cells; format: cell-based, human
Method: as §1

[2] = test system: γH2AX and EGFP-SNM1A foci in U2OS cells; test: microscopic analysis of damage-induced subnuclear foci, U2OS cells expressing EGFP-SNM1A; format: cell-based, human
Method: To this end, cells stably expressing N-terminally EGFP-tagged SNM1A (EGFP-SNM1A) were treated with 50 μM cisplatin alone, 19 (50 μM), or with a combination of both compounds. It is known that on treatment of cells with DNA crosslinking agents, SNM1A forms subnuclear foci that are associated with ongoing sites of DNA repair.[37] […] As previously established, cisplatin treatment efficiently induces co-localisation of EGFP-SNM1A foci and γH2AX foci within 4 hours following treatment, marking sites of cisplatin damage and its repair (Fig. 6C–E). These largely resolved 24 hours post-treatment, again consistent with previous studies.[16,37] Co-treatment of cells with 19 and cisplatin saw a robust induction of SNM1A foci, consistent with the SNM1A activity being dispensable for its localisation to sites of crosslink repair, and γH2AX foci formation (Fig. 6C–E). […] This clear persistence of repair intermediates and trapping of EGFP-SNM1A at the sites of these repair intermediate implies that 19 engages with SNM1A in a cellular context, delaying the completion of cisplatin crosslink repair, which, in turn, results in the sensitisation of cells to cisplatin.
To assess the number of nuclear foci following cisplatin/inhibitor treatments, cells were plated in glass bottom dishes (as above) and allowed to attach. Following treatment, cells were fixed with 4% (v/v) formaldehyde in PBS, blocked with immunofluoresence (IF) blocking buffer (5% horse serum, 1% saponin in PBS) for 1 h, then incubated with primary antibodies at the desired concentrations in IF blocking buffer (overnight, 4 °C). After washing cells three times with PBS, cells were incubated with secondary antibodies for 2–4 hours in IF blocking buffer, washed a further 3 times with PBS then stained with Hoechst 333 258 (1 μg mL^−1 in PBS) for 30 minutes before a further three washes (all washes and incubations were performed at room temperature, unless otherwise stated).
Confocal images were obtained with a Plan APO 63X 1.40NA oil immersion objective, a pinhole setting of 1 AU, bandpass emission settings of 410–468 nm for Hoechst, 490–544 nm for EGFP, 579–624 nm for RFP or Alexa 568, and 633–695 nm for Alexa 647, a projected pixel dimension of around 110 nm × 110 nm, a pixel dwell time of 1.35 μs, and with a line averaging setting of 2. In order to ensure sufficient cell numbers (N > 300), images were acquired in a tiled 5 × 5 format corresponding to an image area of about 0.65 mm × 0.65 mm. Images were imported into ImageJ and foci were counted using a macro adjusting for staining levels between experiments. Anti-γH2AX antibodies were a mouse monoclonal (Millipore; JBW301).

SNM1A = molecular target: T1, SNM1A (Homo sapiens, UniProt Q6PJP8); test: gel-based nuclease assay, SNM1A; format: biochemical; parameters: DNA encoding for the MBL and β-CASP domains of SNM1A (aa 676–1040) was cloned into the baculovirus transfer vector pFB-LIC-Bse; inferred from vector pFB-LIC-Bse and the IMAC purification; made in house; host or cells: Sf9 insect cells (baculovirus)
T1 sequence (Q6PJP8 676-1040): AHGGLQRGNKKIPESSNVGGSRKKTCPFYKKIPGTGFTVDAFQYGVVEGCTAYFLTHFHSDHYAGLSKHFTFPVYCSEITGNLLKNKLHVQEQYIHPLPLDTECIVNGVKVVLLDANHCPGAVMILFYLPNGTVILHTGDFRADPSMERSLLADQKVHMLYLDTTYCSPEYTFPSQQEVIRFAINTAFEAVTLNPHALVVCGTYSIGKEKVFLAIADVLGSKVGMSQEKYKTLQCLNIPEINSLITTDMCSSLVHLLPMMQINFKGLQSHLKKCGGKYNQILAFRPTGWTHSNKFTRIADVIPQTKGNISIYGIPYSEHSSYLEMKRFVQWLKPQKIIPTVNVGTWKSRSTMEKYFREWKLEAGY
Excerpt: To validate the inhibition of SNM1A, SNM1B, and SNM1C observed in the fluorescence-based screening assays, we then performed gel-based assays using 3′ terminally-labelled oligonucleotide substrates that enable both quantitative and qualitative (visual) assessment of the pattern of inhibition, for a subset of compounds. Importantly, whereas the fluorescence-based assay measures a single hydrolytic event at the substrate terminus, the gel-based nuclease assay informs on the pattern of digestion of the entire 51-mer substrate DNA over time.
Standard exonuclease assays were carried out in a 10 μL final volume containing 20 mM HEPES-KOH, pH 7.5, 50 mM KCl, 0.5 mM TCEP, 10 mM MgCl2, 0.05% (v/v) Triton X-100, 5% (v/v) glycerol, and SNM1 proteins as indicated. Inhibitors were dissolved in DMSO and diluted immediately prior to the reaction in the above buffer. Inhibitors were serially diluted two-fold from 100 μM. The DMSO concentration was kept constant at 0.1% (v/v) in the final reaction mixture. Inhibitors were incubated with the indicated SNM1 enzyme for 10 minutes at room temperature; reactions were initiated by addition of 10 nM DNA substrate and incubated at 37 °C for 20 min. Reactions were quenched by addition of 5 μL stop solution (95% formamide, 10 mM EDTA, 0.25% (v/v) xylene cyanol, 0.25% (v/v) bromophenol blue) and heated at 95 °C for 3 min. Reactions were analysed by 20% denaturing polyacrylamide gel electrophoresis solution of 19 : 1 acrylamide:bis-acrylamide, BioRad and 7 M urea (Sigma Aldrich) in 1 × TBE (Tris-borate EDTA) buffer. Electrophoresis was carried out at 525 V for 75 minutes; gels were subsequently fixed for 60 minutes in a 50% (v/v) methanol, 10% (v/v) acetic acid solution, and dried at 80 °C for two hours under vacuum. Dried gels were exposed to a Kodak Phosphor imager screen and scanned using a Typhoon 9500 instrument (GE Healthcare), scanned images were quantified using ImageJ.

C[C@H](Nc1nc(NCc2ccco2)nc2ccc(Cl)cc12)C(=O)NO [compound 19]
effect on cisplatin sensitivity [1]: similarly sensitive to cisplatin treatment in the presence or absence of 19
effect on cisplatin sensitivity (RPE-1 cells; RPE-1, 50 μM compound): did not substantially increase
reduction in survival as single agent (RPE-1 cells; RPE-1, 50 μM compound): negligible reduction in survival
toxicity as single agent (RPE-1 cells; RPE-1, 100 μM compound): mild toxicity
EGFP-SNM1A and γH2AX foci on co-treatment with cisplatin ([2]; U2OS EGFP-SNM1A, 50 μM compound + 50 μM cisplatin): persisted at 24 hours
induction of EGFP-SNM1A and γH2AX foci by compound alone ([2]; U2OS EGFP-SNM1A, 50 μM compound alone): did not induce
average number of γH2AX foci at 24 hours ([2]; U2OS, cisplatin treated with pretreatment with 50 μM 19): 81.6 ± 1.7 foci
increase of average γH2AX foci number following pretreatment ([2]; U2OS, cisplatin treated, 24 hours): 4 fold
inhibition of SNM1A in gel-based assay (SNM1A; 0.5 nM SNM1A): inhibits each of SNM1A–C
IC50 (SNM1A; Suppl. Figure 11C, three independent experiments, read-out: SNM1A IC50 estimated from densitometric analysis of gel based assays): 7.6 µM
IC50 (SNM1A; direct quantification of ratio between intact substrate and digestion product, read-out: SNM1A IC50 estimated from gel-based assay): ~8 µM
